What all share (assay): PubChem AID 504934
The subject of one assay is LXRa. The conditions noted are these: nuclear receptor panel Gal4 luciferase reporter, at 10 µM. On the technique in general: In a reporter assay the amount or activity of a reporter protein is the signal.
The target of assay [1] is Retinoic acid receptor alpha (Homo sapiens) (UniProt P10276). The conditions noted are these: nuclear receptor panel Gal4 luciferase reporter, RARa, at 10 µM.
The test system of the next assay is Rev-erb a. The conditions noted are these: nuclear receptor panel Gal4 luciferase reporter, at 10 µM.
Another assay deals with CAR. The conditions noted are these: nuclear receptor panel Gal4 luciferase reporter, at 10 µM.
The subject of another assay is THRa. As to conditions: nuclear receptor panel Gal4 luciferase reporter, at 10 µM.
For assay [2], the target named is Oxysterols receptor LXR-beta (Homo sapiens) (UniProt P55055). The conditions noted are these: nuclear receptor panel Gal4 luciferase reporter, LXRb, at 10 µM.
Oxysterols receptor LXR-beta (Homo sapiens), sequence (P55055 whole entry, looked up, the tested form may be a part): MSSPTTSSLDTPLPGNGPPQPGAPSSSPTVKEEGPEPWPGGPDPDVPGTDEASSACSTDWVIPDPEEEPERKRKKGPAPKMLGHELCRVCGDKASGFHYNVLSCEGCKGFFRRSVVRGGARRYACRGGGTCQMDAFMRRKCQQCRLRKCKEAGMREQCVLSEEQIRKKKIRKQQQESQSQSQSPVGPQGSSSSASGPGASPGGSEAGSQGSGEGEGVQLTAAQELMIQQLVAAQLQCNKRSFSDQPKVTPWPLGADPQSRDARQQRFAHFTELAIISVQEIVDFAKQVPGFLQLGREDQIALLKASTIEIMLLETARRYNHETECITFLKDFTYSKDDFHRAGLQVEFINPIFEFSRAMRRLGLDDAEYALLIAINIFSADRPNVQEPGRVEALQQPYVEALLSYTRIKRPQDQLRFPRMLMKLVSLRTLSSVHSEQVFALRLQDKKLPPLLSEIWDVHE
Assay [3] deals with Steroidogenic factor 1 (Homo sapiens) (UniProt Q13285). As to conditions: nuclear receptor panel Gal4 luciferase reporter, SF1, at 10 µM.
Steroidogenic factor 1 (Homo sapiens), sequence (Q13285 whole entry, looked up, the tested form may be a part): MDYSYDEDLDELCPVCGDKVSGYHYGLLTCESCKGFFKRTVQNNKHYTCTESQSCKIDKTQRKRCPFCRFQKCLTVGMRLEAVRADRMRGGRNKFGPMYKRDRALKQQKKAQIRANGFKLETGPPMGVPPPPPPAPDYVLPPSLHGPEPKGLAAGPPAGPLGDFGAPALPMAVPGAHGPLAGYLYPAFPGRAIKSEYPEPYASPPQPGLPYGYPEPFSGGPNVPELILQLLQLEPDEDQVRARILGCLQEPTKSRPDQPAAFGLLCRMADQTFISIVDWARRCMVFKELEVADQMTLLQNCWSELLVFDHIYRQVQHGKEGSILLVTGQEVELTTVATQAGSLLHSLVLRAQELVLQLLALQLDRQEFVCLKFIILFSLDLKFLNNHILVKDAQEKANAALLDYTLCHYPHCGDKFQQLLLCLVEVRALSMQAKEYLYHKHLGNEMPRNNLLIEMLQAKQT
For the next assay, the system named is HNF4g. The conditions noted are these: nuclear receptor panel Gal4 luciferase reporter, at 10 µM.
The next assay has as its system TLX. The conditions noted are these: nuclear receptor panel Gal4 luciferase reporter, at 10 µM.
The next assay relates to ERRa. As to conditions: nuclear receptor panel Gal4 luciferase reporter, at 10 µM.
A further assay relates to PGR. As to conditions: nuclear receptor panel Gal4 luciferase reporter, at 10 µM.
A further assay deals with RORb. As to conditions: nuclear receptor panel Gal4 luciferase reporter, at 10 µM.
The test system of the next assay is PPARd. The conditions noted are these: nuclear receptor panel Gal4 luciferase reporter, at 10 µM.
The target of assay [4] is Nuclear receptor subfamily 1 group I member 2 (Homo sapiens) (UniProt O75469). The conditions noted are these: nuclear receptor panel Gal4 luciferase reporter, PXR, at 10 µM.
Nuclear receptor subfamily 1 group I member 2 (Homo sapiens), sequence (O75469 whole entry, looked up, the tested form may be a part): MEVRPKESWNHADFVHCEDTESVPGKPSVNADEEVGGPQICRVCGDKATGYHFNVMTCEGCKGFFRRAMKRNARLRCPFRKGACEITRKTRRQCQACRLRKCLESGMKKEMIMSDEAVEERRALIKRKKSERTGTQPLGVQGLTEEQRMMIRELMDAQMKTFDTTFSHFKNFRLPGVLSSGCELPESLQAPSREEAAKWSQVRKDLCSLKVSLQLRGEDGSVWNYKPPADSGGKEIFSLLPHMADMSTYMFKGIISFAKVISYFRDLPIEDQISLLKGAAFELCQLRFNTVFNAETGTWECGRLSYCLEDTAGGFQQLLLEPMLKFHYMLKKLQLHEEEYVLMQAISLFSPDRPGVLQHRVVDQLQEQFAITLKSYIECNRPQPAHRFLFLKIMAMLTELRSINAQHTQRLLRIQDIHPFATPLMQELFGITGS
A further assay deals with GCNR. As to conditions: nuclear receptor panel Gal4 luciferase reporter, at 10 µM.
Assay [5] has as its target Nuclear receptor ROR-alpha (Homo sapiens) (UniProt P35398). As to conditions: nuclear receptor panel Gal4 luciferase reporter, RORa, at 10 µM.
For assay [6], the target named is Peroxisome proliferator-activated receptor alpha (Homo sapiens) (UniProt Q07869). As to conditions: nuclear receptor panel Gal4 luciferase reporter, PPARa, at 10 µM.
Peroxisome proliferator-activated receptor alpha (Homo sapiens), sequence (Q07869 whole entry, looked up, the tested form may be a part): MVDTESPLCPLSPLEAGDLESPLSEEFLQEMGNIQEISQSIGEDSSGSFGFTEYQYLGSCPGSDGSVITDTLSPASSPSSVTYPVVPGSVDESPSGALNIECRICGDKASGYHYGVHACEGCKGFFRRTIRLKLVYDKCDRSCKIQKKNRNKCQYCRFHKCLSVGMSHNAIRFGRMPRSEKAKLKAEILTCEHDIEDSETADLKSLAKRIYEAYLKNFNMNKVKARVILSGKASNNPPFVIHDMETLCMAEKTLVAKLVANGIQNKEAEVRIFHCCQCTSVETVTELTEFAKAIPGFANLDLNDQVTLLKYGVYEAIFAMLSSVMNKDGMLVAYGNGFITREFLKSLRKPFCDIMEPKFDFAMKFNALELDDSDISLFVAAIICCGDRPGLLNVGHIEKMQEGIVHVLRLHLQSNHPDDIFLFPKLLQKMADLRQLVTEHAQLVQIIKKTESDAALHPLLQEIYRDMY
The test system of another assay is Nurr1. The conditions noted are these: nuclear receptor panel Gal4 luciferase reporter, at 10 µM.
The subject of a further assay is SHP. As to conditions: nuclear receptor panel Gal4 luciferase reporter, at 10 µM.
The test system of another assay is ERRb. As to conditions: nuclear receptor panel Gal4 luciferase reporter, at 10 µM.
The target in assay [7] is COUP transcription factor 2 (Homo sapiens) (UniProt P24468). The conditions noted are these: nuclear receptor panel Gal4 luciferase reporter, Coup-TF2, at 10 µM.
COUP transcription factor 2 (Homo sapiens), sequence (P24468 whole entry, looked up, the tested form may be a part): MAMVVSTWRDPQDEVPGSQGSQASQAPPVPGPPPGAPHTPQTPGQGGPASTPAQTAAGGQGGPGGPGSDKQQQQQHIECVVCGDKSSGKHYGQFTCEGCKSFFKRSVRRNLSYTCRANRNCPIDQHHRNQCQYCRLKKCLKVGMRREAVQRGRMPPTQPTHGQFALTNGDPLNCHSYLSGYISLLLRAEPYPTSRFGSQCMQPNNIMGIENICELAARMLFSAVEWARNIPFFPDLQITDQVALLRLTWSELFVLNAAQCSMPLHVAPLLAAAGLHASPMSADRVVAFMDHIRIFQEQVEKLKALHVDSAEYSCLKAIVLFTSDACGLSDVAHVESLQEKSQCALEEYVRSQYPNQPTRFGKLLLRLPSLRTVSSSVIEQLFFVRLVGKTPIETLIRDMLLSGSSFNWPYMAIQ
In another assay the test system is pBIND-1. The conditions noted are these: nuclear receptor panel Gal4 luciferase reporter, at 10 µM.
The subject of another assay is AR. The conditions noted are these: nuclear receptor panel Gal4 luciferase reporter, at 10 µM.
The next assay has as its system TR2. As to conditions: nuclear receptor panel Gal4 luciferase reporter, at 10 µM.

Calls of active or inactive are those of the source. No rule for the calls is given here.

Retinoic acid receptor alpha (Homo sapiens), sequence (P10276 whole entry, looked up, the tested form may be a part): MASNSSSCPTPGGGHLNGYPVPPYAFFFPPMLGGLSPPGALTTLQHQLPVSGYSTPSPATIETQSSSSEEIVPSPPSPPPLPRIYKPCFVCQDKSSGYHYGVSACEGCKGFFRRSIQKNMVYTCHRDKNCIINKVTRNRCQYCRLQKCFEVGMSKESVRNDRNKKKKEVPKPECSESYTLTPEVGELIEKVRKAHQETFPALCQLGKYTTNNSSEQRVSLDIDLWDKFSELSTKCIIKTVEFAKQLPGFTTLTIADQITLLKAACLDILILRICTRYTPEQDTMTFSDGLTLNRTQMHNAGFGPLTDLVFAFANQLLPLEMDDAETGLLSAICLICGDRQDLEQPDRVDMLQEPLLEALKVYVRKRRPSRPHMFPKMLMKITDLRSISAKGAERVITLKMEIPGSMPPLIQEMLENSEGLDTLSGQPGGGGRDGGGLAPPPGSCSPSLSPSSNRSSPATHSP
Nuclear receptor ROR-alpha (Homo sapiens), sequence (P35398 whole entry, looked up, the tested form may be a part): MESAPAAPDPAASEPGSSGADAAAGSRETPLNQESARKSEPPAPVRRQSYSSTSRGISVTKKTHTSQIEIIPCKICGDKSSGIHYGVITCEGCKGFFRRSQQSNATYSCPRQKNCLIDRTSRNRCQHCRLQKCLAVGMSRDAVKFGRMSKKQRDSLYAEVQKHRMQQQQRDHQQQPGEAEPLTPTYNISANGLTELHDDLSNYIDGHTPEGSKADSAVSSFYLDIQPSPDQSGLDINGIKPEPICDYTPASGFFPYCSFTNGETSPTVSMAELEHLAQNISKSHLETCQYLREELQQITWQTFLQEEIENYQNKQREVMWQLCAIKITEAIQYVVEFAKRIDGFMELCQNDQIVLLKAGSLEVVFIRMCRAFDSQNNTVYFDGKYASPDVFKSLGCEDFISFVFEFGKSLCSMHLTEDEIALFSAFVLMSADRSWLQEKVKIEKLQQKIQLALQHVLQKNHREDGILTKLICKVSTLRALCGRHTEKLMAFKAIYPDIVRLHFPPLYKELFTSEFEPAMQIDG

As to `O=c1cc(N2CCN(c3cccc(Cl)c3)CC2)[nH]c(=O)n1C1CCCCC1`, the fold change in the assay on LXRa is 1.27; in [1] it was 0.47; with Rev-erb a, 0.84 (inactive); in the assay with CAR it was 0.38; in the assay on THRa, 1.69; in assay [2], 1.9 (inactive). Besides, the fold change in [3] is 0.71; with HNF4g, 0.44; in the assay with TLX, 0.88 (inactive); with ERRa it was 1.34; in the assay on PGR, 0.97 (inactive); in the assay on RORb, 0.82 (inactive). The fold change in the assay on PPARd was 1.54; in assay [4], 1.26; in the assay on GCNR, 1.06 (inactive); in assay [5], 1 (inactive); in [6], 1.11 (inactive); in the assay on Nurr1 it was 0.79. The fold change in the assay on SHP is 0.86 (inactive); in the assay with ERRb it was 1.02 (inactive); in [7], 1.04 (inactive); in the assay with pBIND-1 it was 1.28; in the assay with AR it was 0.91 (inactive); with TR2, 0.63.

Values taken from PubChem BioAssay AID504934 (The Scripps Research Institute Molecular Screening Center, 2011).
